Numbers after ± are expanded uncertainties.
Assays:
[1] = 101 kPa, Liquid; for viscosity: Capillary tube (Ostwald / Ubbelohde) method; for mass density: Pycnometric method
[2] = xn = mol fraction of the nth substance listed; conditions: 101 kPa, Liquid; for viscosity: Capillary tube (Ostwald / Ubbelohde) method; for mass density: Pycnometric method

Cc1ccccc1C [1,2-dimethylbenzene]
[1]
Conditions	mass density [kg/m3]	viscosity [mPa·s]
308.15 K	866.7 ± 1.1	0.666 ± 0.013
318.15 K	858.4 ± 1.1	0.591 ± 0.012

Cc1ccccc1C [1,2-dimethylbenzene] + CCCCCCO
[2]
Conditions	mass density, 308.15 K [kg/m3]	mass density, 318.15 K [kg/m3]	viscosity, 308.15 K [mPa·s]	viscosity, 318.15 K [mPa·s]
x2 = 0	866.7 ± 1.1	858.4 ± 1.1	0.666 ± 0.013	0.591 ± 0.012
x2 = 0.0999	860.1 ± 1.1	851.7 ± 1.1	0.709 ± 0.013	0.621 ± 0.012
x2 = 0.1999	853.9 ± 1.1	845.6 ± 1.1	0.789 ± 0.014	0.683 ± 0.013
x2 = 0.2999	847.9 ± 1.1	839.7 ± 1.1	0.899 ± 0.014	0.768 ± 0.013
x2 = 0.4001	842.1 ± 1.1	833.9 ± 1.1	1.043 ± 0.016	0.879 ± 0.014
x2 = 0.4997	836.4 ± 1.1	828.3 ± 1.1	1.23 ± 0.017	1.02 ± 0.016
x2 = 0.6	830.7 ± 1.1	822.7 ± 1.1	1.475 ± 0.02	1.199 ± 0.017
x2 = 0.7	825.1 ± 1.1	817.2 ± 1.1	1.799 ± 0.023	1.431 ± 0.019
x2 = 0.8	819.5 ± 1.1	811.8 ± 1.1	2.217 ± 0.027	1.73 ± 0.022
x2 = 0.8999	814 ± 1.1	806.4 ± 1	2.738 ± 0.033	2.104 ± 0.027

Cc1cccc(C)c1 [1,3-dimethylbenzene]
[1]
Conditions	mass density [kg/m3]	viscosity [mPa·s]
308.15 K	851.3 ± 1.1	0.521 ± 0.012
318.15 K	842.7 ± 1.1	0.47 ± 0.011

Cc1cccc(C)c1 [1,3-dimethylbenzene] + CCCCCCO
[2]
Conditions	mass density, 308.15 K [kg/m3]	mass density, 318.15 K [kg/m3]	viscosity, 308.15 K [mPa·s]	viscosity, 318.15 K [mPa·s]
x2 = 0	851.3 ± 1.1	842.7 ± 1.1	0.521 ± 0.012	0.47 ± 0.011
x2 = 0.1002	846.4 ± 1.1	837.6 ± 1.1	0.562 ± 0.012	0.502 ± 0.012
x2 = 0.2002	841.7 ± 1.1	833 ± 1.1	0.638 ± 0.013	0.561 ± 0.012
x2 = 0.3007	837.2 ± 1.1	828.7 ± 1.1	0.742 ± 0.013	0.643 ± 0.013
x2 = 0.4001	833 ± 1.1	824.6 ± 1.1	0.875 ± 0.014	0.747 ± 0.013
x2 = 0.5	828.8 ± 1.1	820.6 ± 1.1	1.057 ± 0.016	0.885 ± 0.014
x2 = 0.5999	824.7 ± 1.1	816.6 ± 1.1	1.298 ± 0.018	1.066 ± 0.016
x2 = 0.6999	820.6 ± 1.1	812.7 ± 1.1	1.629 ± 0.021	1.306 ± 0.018
x2 = 0.7999	816.6 ± 1.1	808.8 ± 1.1	2.072 ± 0.026	1.623 ± 0.021
x2 = 0.8999	812.6 ± 1.1	805 ± 1.1	2.643 ± 0.032	2.031 ± 0.026

Cc1ccc(C)cc1 [1,4-dimethylbenzene]
[1]
Conditions	mass density [kg/m3]	viscosity [mPa·s]
308.15 K	848.2 ± 1.1	0.541 ± 0.012
318.15 K	839.5 ± 1.1	0.486 ± 0.012

Cc1ccc(C)cc1 [1,4-dimethylbenzene] + CCCCCCO
[2], x2 = 0
Conditions	mass density [kg/m3]	viscosity [mPa·s]
308.15 K	848.2 ± 1.1	0.541 ± 0.012
318.15 K	839.5 ± 1.1	0.486 ± 0.012

CCCCCCO [hexan-1-ol]
[1]
Conditions	mass density [kg/m3]	viscosity [mPa·s]
308.15 K	808.5 ± 1.1	3.318 ± 0.039
318.15 K	801.2 ± 1	2.518 ± 0.031

CCCCCCO [hexan-1-ol] + Cc1ccc(C)cc1
[2]
Conditions	mass density, 308.15 K [kg/m3]	mass density, 318.15 K [kg/m3]	viscosity, 308.15 K [mPa·s]	viscosity, 318.15 K [mPa·s]
x1 = 0.1001	843.6 ± 1.1	834.9 ± 1.1	0.578 ± 0.012	0.513 ± 0.012
x1 = 0.2001	839.4 ± 1.1	830.8 ± 1.1	0.647 ± 0.013	0.567 ± 0.012
x1 = 0.2999	835.4 ± 1.1	826.9 ± 1.1	0.742 ± 0.013	0.643 ± 0.013
x1 = 0.4001	831.4 ± 1.1	823.1 ± 1.1	0.87 ± 0.014	0.743 ± 0.013
x1 = 0.5009	827.5 ± 1.1	819.3 ± 1.1	1.046 ± 0.016	0.877 ± 0.014
x1 = 0.5999	823.7 ± 1.1	815.6 ± 1.1	1.279 ± 0.018	1.051 ± 0.016
x1 = 0.6999	819.9 ± 1.1	811.9 ± 1.1	1.602 ± 0.021	1.287 ± 0.018
x1 = 0.8	816.1 ± 1.1	808.3 ± 1.1	2.042 ± 0.026	1.604 ± 0.021
x1 = 0.9	812.3 ± 1.1	804.7 ± 1.1	2.618 ± 0.032	2.017 ± 0.026
x1 = 1	808.5 ± 1.1	801.2 ± 1.1	3.318 ± 0.039	2.518 ± 0.031

CCCCCCO [hexan-1-ol] + Cc1cccc(C)c1
[2], x1 = 1
Conditions	mass density [kg/m3]	viscosity [mPa·s]
308.15 K	808.5 ± 1.1	3.318 ± 0.039
318.15 K	801.2 ± 1.1	2.518 ± 0.031

CCCCCCO [hexan-1-ol] + Cc1ccccc1C
[2], x1 = 1
Conditions	mass density [kg/m3]	viscosity [mPa·s]
308.15 K	808.5 ± 1.1	3.318 ± 0.039
318.15 K	801.2 ± 1	2.518 ± 0.031
